For 6 molecules, IC50 and melting point results are on record in patent publication US7863279B2, “Triazolopyridine carboxamide derivatives and triazolopyrimidine carboxamide derivatives, preparation thereof and therapeutic use thereof” (sanofi-aventis, priority 2007, dated 2011).

The structures appear in SMILES notation.

Data set [1] concerns the target T1, MGL (monoacyl glycerol lipase) enzyme (Mus musculus, UniProt O35678).
T1 construct: the source of MGL enzyme is a homogenate of mouse brain from which the cerebellum and the medulla oblongata have been removed; from tissue; host or cells: mouse brain homogenate (cerebellum and medulla oblongata removed)
T1 sequence (O35678 1-303): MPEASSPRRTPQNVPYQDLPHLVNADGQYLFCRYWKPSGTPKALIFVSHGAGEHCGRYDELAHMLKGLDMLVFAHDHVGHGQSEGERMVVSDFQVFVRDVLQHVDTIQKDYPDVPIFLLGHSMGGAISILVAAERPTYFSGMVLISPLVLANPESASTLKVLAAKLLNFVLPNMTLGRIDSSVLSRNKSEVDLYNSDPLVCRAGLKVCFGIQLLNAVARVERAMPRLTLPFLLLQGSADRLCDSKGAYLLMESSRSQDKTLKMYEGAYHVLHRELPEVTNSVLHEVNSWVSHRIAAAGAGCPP
Nature of the data set: Radioenzymatic assay of [3H] 2-oleoyl glycerol hydrolysis by MGL. It counts as biochemical. The conditions noted are these: mouse brain homogenate; 20 min preincubation; 50 μM 2-OG, 20 min at ambient temperature; read-out: IC50 (concentration inhibiting 50% of the control enzyme activity of MGL). How it is done: Tests comprised measuring the activity, in vitro, of the compounds of the invention on the MGL enzyme.
The inhibitory activity was measured in a radioenzymatic assay based on measuring the product of hydrolysis of 2-oleoyl glycerol ([^3H] 2-OG) by MGL. The products of hydrolysis of [^3H] 2-OG, labeled on the glycerol, are oleic acid and [^3H] glycerol, and the source of MGL enzyme is a homogenate of mouse brain from which the cerebellum and the medulla oblongata have been removed. The mouse brains are removed, and stored at −80° C. until they are used, or homogenized immediately for twice 5 seconds using a Precellys apparatus at 5000 rpm (Bertin) in a 10 mM Tris-HCl, 150 mM NaCl, 1 mM EDTA buffer (pH 8) at 4° C. The concentration of the homogenates is then adjusted to 7.5 μg/μl.
(§1) The dilution series of the compounds is prepared from stock solutions at 20 mM in 100% DMSO. […]
Assaying of the MGL activity is carried out in a 96-well microplate in a final reaction volume of 100 μl. […] After stirring for 10 minutes, the microplate is centrifuged for 15 minutes at 4000 g and a 30 μl aliquot of the aqueous phase containing the [^3H] glycerol produced is removed and then counted for 5 minutes by liquid scintillation (Wallac 1450 Microbeta). […]

Data set [2] deals with T2, FAAH (Fatty Acid Amide Hydrolase) enzyme (Mus musculus, UniProt O08914).
T2 construct: the source of FAAH enzyme is a homogenate of mouse brain from which the cerebellum and the medulla oblongata have been removed; from tissue; host or cells: mouse brain homogenate (cerebellum and medulla oblongata removed)
T2 sequence (O08914 1-579): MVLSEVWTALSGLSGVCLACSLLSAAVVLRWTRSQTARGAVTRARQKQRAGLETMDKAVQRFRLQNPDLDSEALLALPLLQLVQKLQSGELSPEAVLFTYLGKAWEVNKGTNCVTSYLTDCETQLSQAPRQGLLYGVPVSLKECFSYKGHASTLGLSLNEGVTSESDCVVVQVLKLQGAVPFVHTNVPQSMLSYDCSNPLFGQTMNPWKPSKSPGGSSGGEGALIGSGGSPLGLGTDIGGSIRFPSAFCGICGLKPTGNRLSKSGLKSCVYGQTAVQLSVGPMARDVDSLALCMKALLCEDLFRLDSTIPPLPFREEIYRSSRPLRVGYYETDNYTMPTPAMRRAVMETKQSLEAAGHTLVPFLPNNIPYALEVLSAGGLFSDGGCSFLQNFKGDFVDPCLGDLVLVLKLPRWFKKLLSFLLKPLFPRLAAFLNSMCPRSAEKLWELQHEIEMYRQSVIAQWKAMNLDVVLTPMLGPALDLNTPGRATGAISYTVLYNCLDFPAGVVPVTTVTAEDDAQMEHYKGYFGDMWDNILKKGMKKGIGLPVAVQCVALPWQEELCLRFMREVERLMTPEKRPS
Nature of the data set: Radioenzymatic assay of [3H] anandamide hydrolysis by FAAH. Format: biochemical. The conditions noted are these: mouse brain homogenate; 20 min preincubation; 10 μM anandamide, 20 min at ambient temperature; read-out: IC50 (concentration inhibiting 50% of the control enzyme activity of FAAH). How it is done: Tests comprised measuring the activity, in vitro, of the compounds of the invention on the FAAH enzyme.
The inhibitory activity was measured in a radioenzymatic assay based on measuring the product of hydrolysis (ethanolamine [1-3H]) of anandamide by FAAH (Life Science (1995), 56, 1999-2005 and Journal of Pharmacology and Experimented Therapeutics (1997), 283, 729-734). The products of hydrolysis of [^3H] anandamide, labeled on ethanolamine, are arachidonic acid and [^3H]ethanolamine, and the source of FAAH enzyme is a homogenate of mouse brain from which the cerebellum and the medulla oblongata have been removed. The mouse brains are removed, and stored at −80° C. until they are used, or homogenized immediately for twice 5 seconds using a Precellys apparatus at 5000 rpm (Bertin) in a 10 mM Tris-HCl, 150 mM NaCl, 1 mM EDTA buffer (pH 8) at 4° C. The concentration of the homogenates is then adjusted to 20 μg/μl.
as §1
Assaying of the FAAH activity is carried out in a 96-well microplate in a final reaction volume of 70 μl. […] After stirring for 10 minutes, the microplate is centrifuged for 15 minutes at 4000 g and a 30 μl aliquot of the aqueous phase containing the [^3H]ethanolamine produced is removed and then counted for 5 minutes by liquid scintillation (Wallac 1450 Microbeta).

Take `O=C(N1CCN(c2cccc(C(F)(F)F)c2)CC1)n1nnc2ccc(-c3ccc(Cl)cc3)nc21` [Compound No. 3, [5-(4-chlorophenyl)[1,2,3]triazolo[4,5-b]pyridin-3-yl][4-(3-trifluoromethylphenyl)piperazin-1-yl]methanone]: the melting point fell in the range of 139 to 141 °C. For the same molecule, in data set [1], the IC50 was 2 nM. Besides, the IC50 in data set [2] was 2 nM.

As to `O=C(N1CCN(c2cccc(C(F)(F)F)c2)CC1)n1nnc2ccc(-c3ccccc3Cl)nc21` [compound 1, [5-(2-chlorophenyl)[1,2,3]triazolo[4,5-b]pyridin-3-yl][4-(3-trifluoromethylphenyl)piperazin-1-yl]methanone], the melting point is 69 to 71 °C.

As for `O=C(N1CCN(c2cccc(C(F)(F)F)c2)CC1)n1nnc2ccc(-c3cccc(Cl)c3)nc21` [compound 2, [5-(3-chlorophenyl)[1,2,3]triazolo[4,5-b]pyridin-3-yl][4-(3-trifluoromethylphenyl)piperazin-1-yl]methanone], the melting point was 102 to 104 °C.

The molecule `O=C(N1CCN(c2cccc(C(F)(F)F)c2)CC1)n1nnc2ccc(-c3ccoc3)nc21` [compound 4, (5-furan-3-yl[1,2,3]triazolo[4,5-b]pyridin-3-yl)[4-(3-trifluoromethylphenyl)piperazin-1-yl]methanone] registered a melting point of 68 to 70 °C.

For the molecule `O=C(N1CCN(c2cccc(C(F)(F)F)c2)CC1)n1nnc2ccc(-c3ccsc3)nc21` [compound 5, (5-thiophen-3-yl[1,2,3]triazolo[4,5-b]pyridin-3-yl)[4-(3-trifluoromethylphenyl)piperazin-1-yl]methanone], the melting point is 93 to 95 °C.

In the case of `O=C(N1CCN(c2cccc(C(F)(F)F)c2)CC1)n1nnc2ccc(-c3ccc4ccccc4c3)nc21` [compound 6, (5-naphthalen-2-yl[1,2,3]triazolo[4,5-b]pyridin-3-yl)[4-(3-trifluoromethylphenyl)piperazin-1-yl]methanone], the melting point is 90 to 92 °C.

For orientation: melting point means the temperature of the solid-liquid transition.
